The results in this text go back to patent US12521397B2, “Nucleotide analogs” (The Regents of the University of California, priority 2014, dated 2026).

The EC50 is the concentration at which the effect is half-maximal. A word on the EC90: it is the concentration at which the effect reaches the 90% level. As a reminder, the CC50 is the concentration at which the toxic effect on the cells reaches its halfway point.

SMILES strings stand for the structures. Like-named read-outs stand apart in the source and are kept apart here.

The subject of one data set is HPV-11. Briefly: Low risk HPV origin plasmid replication assay (qPCR) in HEK 293 cells. The data set is classed as cell-based, human papillomavirus. As for the experimental part: (§1) An origin-containing low risk or high risk HPV plasmid was co-transfected with homologous E1 and E2 protein expression vectors into HEK 293 cells. At 4 h post-transfection, cells were treated with test compound dilutions and then incubated for 48 h. HPV origin plasmid replication was detected after digestion with DpnI and exonuclease III to remove unreplicated transfected plasmids. Remaining replicated DNA was quantified by quantitative real time PCR (qPCR). In a parallel experiment in uninfected cells cytotoxicity was determined by trypan blue exclusion or CELLTITER-GLO® to find the concentration that reduced viable cell number by 50% (CC50). CC50 values were determined by trypan blue exclusion or CELLTITER-GLO® and the selectivity index calculated (Selectivity index=CC50/EC50). The low risk HPV tested was HPV-11, and the high-risk HPV tested was HPV-16 and HPV-18.
On the technique in general: Quantitative PCR measures a nucleic acid by following its amplification.

The subject of a further data set is HPV-16 and HPV-18. The data set can be described thus: High risk HPV origin plasmid replication assay (qPCR) in HEK 293 cells. The data set is classed as cell-based, human papillomavirus. As to conditions: read-out: High Risk (EC50). As for the experimental part: as §1
The test system of the next data set is HEK-293 cells. The data set can be described thus: Cytotoxicity assay in HEK-293 cells (trypan blue exclusion or CellTiter-Glo). In kind it is cell-based. The method, then: as §1
Cytotoxicity Assays in HEK-293 cells. Cytotoxicity assays are performed in concurrently with every antiviral assay using the same cell line and media to ensure the same compound exposure. For the antiviral studies against HPV11 in HEK-293 cells, transfected cells are seeded in duplicate plates. […] At 48 h following compound addition, CELLTITER-GLO® (Promega) is added to each well and luminescence is determined on a luminometer. […]
(In general: ATP-based viability assays read luminescence as a measure of living cells.)

Data set [1] concerns human foreskin fibroblast (HFF) cells. Briefly: Cytotoxicity assay in primary human foreskin fibroblast cells (CellTiter-Glo). In kind it is cell-based. The settings on record: 7d incubation. As for the experimental part: Cytotoxicity Assays in Primary Human Foreskin Fibroblast Cells. Cytotoxicity was also evaluated in human foreskin fibroblast (HFF) cells as they are a highly sensitive indicator of toxicity in a standard assay with 7 d of compound exposure. A total of 4000 cells/well are seeded in 384-well plates in cell culture media containing 2% fetal bovine serum and antibiotics. Following a 24 h incubation, 5-fold compound dilutions are performed in duplicate wells directly in the plates containing monolayers of HFF cells. At 7 d following compound addition, CellTiter-Glo reagent is added to each well and resulting luminescence is measured on a luminometer to assess the number of viable cells in each well. Data are then used to calculate CC50 values.

Where [2] appears, read: low risk HPV tested was HPV-11, HEK 293 cells, 48 h incubation, read-out: Low Risk (EC50).

Take `CCCCCCCCCCCCCCCCCCOCCOP(=O)(O)COCCn1cnc2c(=O)[nH]c(N)nc21` [ODE-PMEG, Octadecyloxyethyl-Phosphonomethoxyethylguanine]: the EC50 was less than 0.3 µM in the data set on HPV-11 (setting [2]); less than 0.3 µM in the data set with HPV-16 and HPV-18 (high-risk HPV tested was HPV-16 and HPV-18, HEK 293 cells, 48 h incubation).
As for `Nc1nc2c(ncn2CCOCP(=O)(O)O)c(=O)[nH]1` [PMEG, 9-(2-phosphonylmethoxyethyl) guanine, reference compound], the EC50 in the data set on HPV-11 (setting [2]) was 3 to 30 µM.
In the case of `CCOC(=O)[C@H](C)NP(=O)(COCCn1cnc2c(=O)[nH]c(N)nc21)Oc1ccccc1` (stereo partly shown) [PMEG phenoxy amidate Example 10], in the data set on HPV-11 (Human papillomavirus, HEK293), the EC50 was found to be 7.56 ± 0.63 µM. This compound displayed an EC90 in the data set on HPV-11 (Human papillomavirus, HEK293) greater than 100 µM. For the same compound, the 50% cytotoxic concentration (CC50) was greater than 100 µM with HEK-293 cells (CellTiter-Glo, 2d incubation, read-out: Cytotoxicity CC50, HEK 293 (2d incubation)); greater than 100 µM in the data set with HEK-293 cells (Table B, HEK-293 cells, parallel to HPV-11 antiviral assay, read-out: CC50); 70.9 ± 4.07 µM in data set [1].
With `CCCCCCCCCCCCCCCCCCOCC(COP(=O)(O)COCCn1cnc2c(=O)[nH]c(N)nc21)OCc1ccccc1` (stereo not shown) [ODBG-PMEG, 1-O-Octadecyl-2-O-benzyl-sn-glyceryl PMEG], the EC50 is 0.3 to 3 µM with HPV-11 (Human papillomavirus, HEK293, low risk HPV tested was HPV-11, HEK 293 cells, 48 h incubation, read-out: Low Risk (EC50)); 0.3 to 3 µM in the data set on HPV-16 and HPV-18 (Human papillomavirus, HEK293, 48 h).
